Data on 31 compounds can be found in US10800782B2, “Inhibitors of cellular metabolic processes” (Agios Pharmaceuticals, Inc., priority 2016, dated 2020).

In this assay the target is T1, MAT2A (Homo sapiens, UniProt P31153).
T1 construct: His6; made in house; host or cells: SF9 insect cells
T1 sequence (P31153 whole entry): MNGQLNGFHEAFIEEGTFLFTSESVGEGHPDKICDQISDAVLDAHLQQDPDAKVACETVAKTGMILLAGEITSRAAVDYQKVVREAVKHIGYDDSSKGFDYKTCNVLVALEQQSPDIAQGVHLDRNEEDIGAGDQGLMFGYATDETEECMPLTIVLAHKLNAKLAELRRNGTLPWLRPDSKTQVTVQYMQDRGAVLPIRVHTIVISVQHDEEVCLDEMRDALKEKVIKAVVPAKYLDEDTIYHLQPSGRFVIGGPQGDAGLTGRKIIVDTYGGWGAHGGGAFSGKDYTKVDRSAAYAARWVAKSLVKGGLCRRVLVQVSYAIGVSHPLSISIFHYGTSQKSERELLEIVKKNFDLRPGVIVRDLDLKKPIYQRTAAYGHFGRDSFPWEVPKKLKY
The assay is described as follows: MAT2A biochemical assay (colorimetric inorganic phosphate detection, PiColorLock). Conditions: recombinant His6-tagged MAT2A 1 μg/ml; 60 minutes preincubation at 25° C.; L-Met 80 μM, ATP 100 μM; 60 minutes reaction; read at 623 nm; read-out: MAT2A Inhibition Score. Put shortly:
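Colorimetric malachite green readout of phosphate released when MAT2A turns over L-Met and ATP, after 60 min at room temperature. Enzyme: SF9-expressed His6-tagged MAT2A at 1 μg/ml. Buffer: Tris pH 8.0, 50 mM KCl, 15 mM MgCl2, 300 uM EDTA, 0.005% BSA. Compounds tested as ten-point three-fold dilutions.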
On to `O=c1c(-c2ccc3ncccc3c2)c(Nc2cc[nH]n2)[nH]c2c(-c3ccccc3)c(-c3ccccc3)nn12` [Compound 187, 5-((1H-pyrazol-3-yl)amino)-2,3-diphenyl-6-(quinolin-6-yl)pyrazolo[1,5-a]pyrimidin-7(4H)-one], for which the IC50 is under 100 nM.

Turning to `Cc1cc(Nc2[nH]c3c(-c4ccccc4)c(-c4ccccc4)nn3c(=O)c2-c2ccc3ncccc3c2)n[nH]1` [Compound 188, 5-((5-methyl-1H-pyrazol-3-yl)amino)-2,3-diphenyl-6-(quinolin-6-yl)pyrazolo[1,5-a]pyrimidin-7(4H)-one], the IC50 was under 100 nM.

For `COc1ccc(-c2c(Nc3ccn[nH]3)[nH]c3c(C4=CCCCC4)c(-c4ccccc4)nn3c2=O)cc1` [Compound 189, 5-((1H-pyrazol-5-yl)amino)-3-(cyclohex-1-en-1-yl)-6-(4-methoxyphenyl)-2-phenyl pyrazolo[1,5-a]pyrimidin-7(4H)-one], the IC50 is under 100 nM.

Turning to `O=c1c(-c2ccc3ncccc3c2)c(Nc2ccn[nH]2)[nH]c2c(C3=CCCCC3)c(-c3ccccc3)nn12` [Compound 190, 5-((1H-pyrazol-5-yl)amino)-3-(cyclohex-1-en-1-yl)-2-phenyl-6-(quinolin-6-yl)pyrazolo[1,5-a]pyrimidin-7(4H)-one], the IC50 was under 100 nM.

On to `O=c1c(-c2ccc3nccnc3c2)c(Nc2ccn[nH]2)[nH]c2c(C3=CCCCC3)c(-c3ccccc3)nn12` [Compound 191, 5-((1H-pyrazol-5-yl)amino)-3-(cyclohex-1-en-1-yl)-2-phenyl-6-(quinoxalin-6-yl)pyrazolo[1,5-a]pyrimidin-7(4H)-one], for which the IC50 is under 100 nM.

For the compound `COc1ccc(-c2c(Nc3cscn3)[nH]c3c(-c4ccccc4)c(-c4ccccc4)nn3c2=O)cc1` [Compound 192, 6-(4-methoxyphenyl)-2,3-diphenyl-5-(thiazol-4-ylamino)pyrazolo[1,5-a]pyrimidin-7(4H)-one], the IC50 was under 100 nM.

Consider `O=c1c(-c2ccc(O)cc2)c(Nc2cc[nH]n2)[nH]c2c(-c3ccccc3)c(-c3ccccc3)nn12` [Compound 193, 5-((1H-pyrazol-3-yl)amino)-6-(4-hydroxyphenyl)-2,3-diphenylpyrazolo[1,5-a]pyrimidin-7(4H)-one], for which the IC50 is under 100 nM.

As for `O=c1c(-c2ccc(O)cc2)c(Nc2cnccn2)[nH]c2c(C3=CCCCC3)c(-c3ccccc3)nn12` [Compound 194, 3-cyclohexenyl-6-(4-hydroxyphenyl)-2-phenyl-5-(pyrazin-2-ylamino)pyrazolo[1,5-a]pyrimidin-7(4H)-one], the IC50 is under 100 nM.

With `O=c1c(-c2ccc(O)cc2)c(Nc2nc[nH]n2)[nH]c2c(-c3ccccc3)c(-c3ccccc3)nn12` [Compound 195, 5-((1H-1,2,4-triazol-3-yl)amino)-6-(4-hydroxyphenyl)-2,3-diphenylpyrazolo[1,5-a]pyrimidin-7(4H)-one], the IC50 was under 100 nM.

For the compound `Cc1nc2ccc(-c3c(Nc4ccccn4)[nH]c4c(-c5ccccc5)c(-c5ccccc5)nn4c3=O)cc2s1` [Compound 196, 6-(2-methylbenzo[d]thiazol-6-yl)-2,3-diphenyl-5-(pyridin-2-ylamino)pyrazolo[1,5-a]pyrimidin-7(4H)-one], the IC50 is under 100 nM.

Take `O=c1c(-c2ccc3c(c2)NCCO3)c(Nc2ccccn2)[nH]c2c(-c3ccccc3)c(-c3ccccc3)nn12` [Compound 197, 6-(3,4-dihydro-2H-benzo[b][1,4]oxazin-6-yl)-2,3-diphenyl-5-(pyridin-2-ylamino) pyrazolo[1,5-a]pyrimidin-7(4H)-one]: the IC50 was under 100 nM.

Take `CN1CCOc2ccc(-c3c(Nc4ccccn4)[nH]c4c(-c5ccccc5)c(-c5ccccc5)nn4c3=O)cc21` [Compound 198, 6-(4-methyl-3,4-dihydro-2H-benzo[b][1,4]oxazin-6-yl)-2,3-diphenyl-5-(pyridin-2-ylamino)pyrazolo[1,5-a]pyrimidin-7(4H)-one]: the IC50 is under 100 nM.

In the case of `CCNC(=O)c1nnc(Nc2[nH]c3c(-c4ccccc4)c(-c4ccccc4)nn3c(=O)c2-c2ccc3ncccc3c2)o1` [Compound 199, N-ethyl-5-((7-oxo-2,3-diphenyl-6-(quinolin-6-yl)-4,7-dihydropyrazolo[1,5-a]pyrimidin-5-yl)amino)-1,3,4-oxadiazole-2-carboxamide], the IC50 was under 100 nM.

For the compound `COc1ccc(-c2c(N/C(N)=N/O)[nH]c3c(-c4ccccc4)c(-c4ccccc4)nn3c2=O)cc1` [Compound 200, (E)-2-hydroxy-1-(6-(4-methoxyphenyl)-7-oxo-2,3-diphenyl-4,7-dihydropyrazolo[1,5-a]pyrimidin-5-yl)guanidine], the IC50 was under 100 nM.

In the case of `COc1ccc(-c2c(Nc3ccn(COC(=O)[C@@H](N)C(C)C)n3)[nH]c3c(-c4ccccc4)c(-c4ccccc4)nn3c2=O)cc1` [Compound 201, (S)-(3-((6-(4-methoxyphenyl)-7-oxo-2,3-diphenyl-4,7-dihydropyrazolo[1,5-a]pyrimidin-5-yl)amino)-1H-pyrazol-1-yl)methyl 2-amino-3-methylbutanoate], the IC50 was under 100 nM.

Take `COc1ccc(-c2c(Nc3ccccn3)[nH]c3c(C4=CCCCC4)c(-c4ccccn4)nn3c2=O)cc1` [Compound 203, 3-(cyclohex-1-en-1-yl)-6-(4-methoxyphenyl)-2-(pyridin-2-yl)-5-(pyridin-2-ylamino)pyrazolo[1,5-a]pyrimidin-7(4H)-one]: the IC50 was under 100 nM.

Regarding `Cc1[nH]c2c(-c3ccccc3)c(-c3ccccc3)nn2c(=O)c1-c1ccc2ncccc2c1` [Compound 204, 5-methyl-2,3-diphenyl-6-(quinolin-6-yl)pyrazolo[1,5-a]pyrimidin-7(4H)-one], the IC50 is under 100 nM.

As for `Cc1[nH]c2c(-c3ccccc3)c(-c3ccccc3F)nn2c(=O)c1-c1ccc2ncccc2c1` [Compound 205, 2-(2-fluorophenyl)-5-methyl-3-phenyl-6-(quinolin-6-yl)pyrazolo[1,5-a]pyrimidin-7(4H)-one], the IC50 was under 100 nM.

For `Cc1[nH]c2c(N3CCCCC3)c(-c3ccccc3)nn2c(=O)c1-c1ccc2ncccc2c1` [Compound 206, 5-methyl-2-phenyl-3-(piperidin-1-yl)-6-(quinolin-6-yl)pyrazolo[1,5-a]pyrimidin-7(4H)-one], the IC50 was under 100 nM.

As for `Cc1[nH]c2c(N3CCC(F)(F)CC3)c(-c3ccccc3)nn2c(=O)c1-c1ccc2ncccc2c1` [Compound 207, 3-(4,4-difluoropiperidin-1-yl)-5-methyl-2-phenyl-6-(quinolin-6-yl)pyrazolo[1,5-a]pyrimidin-7(4H)-one], the IC50 was under 100 nM.

As to `Cc1[nH]c2c(C3=CCCCC3)c(-c3ccccc3)nn2c(=O)c1-c1ccc2nccnc2c1` [Compound 208, 3-(cyclohex-1-en-1-yl)-5-methyl-2-phenyl-6-(quinoxalin-6-yl)pyrazolo[1,5-a]pyrimidin-7(4H)-one], the IC50 is under 100 nM.

With `COc1ccc(-c2c(C)[nH]c3c(-c4ccccc4)c(-c4ccccc4)nn3c2=O)cc1` [Compound 209, 6-(4-methoxyphenyl)-5-methyl-2,3-diphenylpyrazolo[1,5-a]pyrimidin-7(4H)-one], the IC50 is under 100 nM.

On to `CCOc1ccc(-c2c(C)[nH]c3c(-c4ccccc4)c(-c4ccccc4)nn3c2=O)cc1` [Compound 210, 6-(4-ethoxyphenyl)-5-methyl-2,3-diphenylpyrazolo[1,5-a]pyrimidin-7(4H)-one], for which the IC50 is under 100 nM.

Turning to `Cc1[nH]c2c(-c3ccccc3)c(-c3ccccc3)nn2c(=O)c1-c1ccc2c(c1)OCCO2` [Compound 211, 6-(2,3-dihydrobenzo[b][1,4]dioxin-6-yl)-5-methyl-2,3-diphenylpyrazolo[1,5-a]pyrimidin-7(4H)-one], the IC50 is under 100 nM.

In the case of `COc1ccc(-c2c(C)[nH]c3c(C4=CCCCC4)c(-c4ccccc4)nn3c2=O)cc1` [Compound 212, 3-(cyclohex-1-en-1-yl)-6-(4-methoxyphenyl)-5-methyl-2-phenylpyrazolo[1,5-a]pyrimidin-7(4H)-one], the IC50 was under 100 nM.

Take `COc1ccc(-c2c(C)[nH]c3c(N4CCC(F)(F)CC4)c(-c4ccccc4)nn3c2=O)cc1` [Compound 213, 3-(4,4-difluoropiperidin-1-yl)-6-(4-methoxyphenyl)-5-methyl-2-phenylpyrazolo[1,5-a]pyrimidin-7(4H)-one]: the IC50 is under 100 nM.

On to `Cc1[nH]c2c(C3=CCCC3)c(-c3ccccc3)nn2c(=O)c1-c1ccc2ncccc2c1` [Compound 215, 3-(cyclopent-1-en-1-yl)-5-methyl-2-phenyl-6-(quinolin-6-yl)pyrazolo[1,5-a]pyrimidin-7(4H)-one], for which the IC50 was under 100 nM.

For `Cc1[nH]c2c(C3=CCCCC3)c(-c3ccccc3)nn2c(=O)c1-c1ccc2ncccc2c1` [Compound 216, 3-(cyclohex-1-en-1-yl)-5-methyl-2-phenyl-6-(quinolin-6-yl)pyrazolo[1,5-a]pyrimidin-7(4H)-one], the IC50 is under 100 nM.

On to `Cc1[nH]c2c(C3=CCCCO3)c(-c3ccccc3)nn2c(=O)c1-c1ccc2ncccc2c1` [Compound 217, 3-(3,4-dihydro-2H-pyran-6-yl)-5-methyl-2-phenyl-6-(quinolin-6-yl)pyrazolo[1,5-a]pyrimidin-7(4H)-one], for which the IC50 was under 100 nM.

`COc1ccc(-c2c(C)[nH]c3c(C4=CCOCC4)c(-c4ccccc4)nn3c2=O)cc1` [Compound 218, 3-(3,6-dihydro-2H-pyran-4-yl)-6-(4-methoxyphenyl)-5-methyl-2-phenylpyrazolo[1,5-a]pyrimidin-7(4H)-one]: the IC50 is under 100 nM.

With `COc1ccc(-c2c(C)[nH]c3c(C4=CCCOC4)c(-c4ccccc4)nn3c2=O)cc1` [Compound 219, 3-(5,6-dihydro-2H-pyran-3-yl)-6-(4-methoxyphenyl)-5-methyl-2-phenylpyrazolo[1,5-a]pyrimidin-7(4H)-one], the IC50 was under 100 nM.
